Test system: not given
Assay: not given
Details: not given

**Q.** With `CCCCOCCOc1ccc(-c2ccc3c(c2)C=C(C(=O)Nc2ccc(SCc4nccn4CCCC(=O)OCC)cc2)CCCN3CC(C)C)cc1` [Compound 33, ethyl 4-(2-(((4-(((8-(4-(2-butoxyethoxy)phenyl)-1-isobutyl-1,2,3,4-tetrahydro-1-benzoazocine-5-yl)carbonyl)amino)phenyl)sulfanyl)-methyl)imidazol-1-yl)butanoate] as the compound, how does the melting point read?
**A.** Its melting point is 130 to 131 °C.

**Q.** For `CCCCOCCOc1ccc(-c2ccc3c(c2)C=C(C(=O)Nc2ccc(SCc4nncn4CCC)cc2)CCCN3CC(C)C)cc1` [Compound 46, 8-[4-(2-butoxyethoxy)phenyl]-1-isobutyl-N-[4-[[(4-propyl-4H-1,2,4-triazol-3-yl)methyl]thio]phenyl]-1,2,3,4-tetrahydro-1-benzazocine-5-carboxamide], which melting point is on record?
**A.** The melting point was 122 to 126 °C.

**Q.** Which melting point does the source give for `CCCCOCCOc1ccc(-c2ccc3c(c2)C=C(C(=O)Nc2ccc([S+]([O-])Cc4nncn4CCC)cc2)CCCN3CC(C)C)cc1` (centres unmarked) [Compound 47, 8-[4-(2-butoxyethoxy)phenyl]-1-isobutyl-N-[4-[[(4-propyl-4H-1,2,4-triazol-3-yl)methyl]sulfinyl]phenyl]-1,2,3,4-tetrahydro-1-benzazocin-5-carboxamide] here?
**A.** Its melting point is 105 to 110 °C.

**Q.** With `CCCCOCCOc1ccc(-c2ccc3c(c2)C=C(C(=O)Nc2ccc([S+]([O-])Cc4nncn4CCC)cc2)CCCN3CCC)cc1` (centres unmarked) [Compound 51, 8-[4-(2-butoxyethoxy)phenyl]-1-propyl-N-[4-[[(4-propyl-4H-1,2,4-triazol-3-yl)methyl]sulfinyl]phenyl]-1,2,3,4-tetrahydro-1-benzazocine-5-carboxamide] as the compound, how does the melting point read?
**A.** Its melting point is 167 to 170 °C.

**Q.** For `CCCCOCCOc1ccc(-c2ccc3c(c2)C=C(C(=O)Nc2ccc([S+]([O-])Cc4nccn4CCCC(=O)OCC)cc2)CCCN3CC(C)C)cc1` (centres unmarked) [Compound 54, ethyl 4-(2-(((4-(((8-(4-(2-butoxyethoxy)phenyl)-1-isobutyl-1,2,3,4-tetrahydro-1-benzazocine-5-yl)carbonyl)amino)phenyl)sulfinyl)methyl)imidazol-1-yl)butanoate], which melting point is on record?
**A.** The melting point was 133.5 to 134.5 °C.

Biological target: T1, human CCR5 (Homo sapiens, UniProt P51681)
T1 construct: expressed in transfected cells; host or cells: CHO-K1 cells, stably transfected with pCKR5 (pcDNA3.1 backbone), Geneticin-selected
T1 sequence (P51681 whole entry): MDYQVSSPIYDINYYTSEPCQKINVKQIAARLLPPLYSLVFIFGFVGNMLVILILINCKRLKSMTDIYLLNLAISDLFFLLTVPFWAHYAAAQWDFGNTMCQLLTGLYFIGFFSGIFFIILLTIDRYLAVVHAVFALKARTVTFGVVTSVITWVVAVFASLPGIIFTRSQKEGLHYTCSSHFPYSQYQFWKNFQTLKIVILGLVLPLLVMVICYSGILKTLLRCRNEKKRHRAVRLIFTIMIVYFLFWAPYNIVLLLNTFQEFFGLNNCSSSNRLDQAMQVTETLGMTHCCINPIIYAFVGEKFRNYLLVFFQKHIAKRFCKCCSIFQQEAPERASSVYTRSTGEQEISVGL
Assay: Inhibition of [125I]-RANTES binding to CCR5/CHO cells (CCR5 antagonist activity)
Details: 40 min, test compound 1 μM, 100 pM [125I]-RANTES as ligand, room temperature, read-out: Binding Inhibitory Ratio (%)
Method: (1) Cloning of Human CCR5 Chemokine Receptor Cloning of CCR5 gene was conducted from human spleen cDNA by PCR method. Using cDNA (0.5 ng) from spleen (Toyobo, QUICK-Clone cDNA) as a genetic template, primer sets prepared by referring to CCR5 gene nucleotide sequence described by Samson et al. (Biochemistry 35 (11), 3362-3367 (1996), i.e., (2) Preparation of Expression Plasmid of Human CCR5 […] The DNA fragments and an expression plasmid for animal cells pcDN A3.1 (Funakoshi), which was previously digested by XbaI and BamHI, were mixed and ligated by DNA Ligation Kit Ver. 2 (Takara Shuzo). Transformation of E. coli JM109 competent cells (Takara Shuzo) gave plasmid pCKR5. (3) Introduction of the Human CCR5 Expression Plasmid into CHO-K1 Cells and Expression Thereof […] The cells were washed with PBS (Lifetech Oriental), centrifuged (1000 rpm, 5 minutes), and resuspended in PBS. The DNA was introduced into the cells using Gene Pulser (BioRad) according to the following conditions. […] The cells were diluted to a concentration of 10^4 cells/ml, and inoculated in 96 well plate (Becton Dickinson), to obtain Geneticin-resistant cells. The Geneticin-resistant cells ware grown in 96 well plate (Becton Dickinson), and CCR5 expressing cells were selected from the resistant cells. Namely, in an assay buffer, (Ham F12 medium containing 0.5% BSA, and 20 mM HEPES (Wako Pure Chemical Ind., pH 7.2)), containing 200 pM [^125I]-RANTES (Amersham) as a ligand, the cells were subjected to binding reaction at room temperature for 40 minutes. The well plate containing the cells was washed with ice-cooled PBS, added with 1M NaOH in an amount of 50 μl/well and stirred. The cells to which the ligand bound specifically, i.e., CCR5/CHO cells, were selected by measurement of radioactivity by γ-counter. (4) Evaluation of Compounds Based on CCR5 Antagonist Activity The CCR5/CHO cells were inoculated in 96 well microplate at a concentration of 5×10^4 cells/well, and grown for 24 hours. After removal of the medium by aspiration, to each well was added an assay buffer containing a test compound (1 μM), and (^125I)/RANTES (Amersham) used as a ligand at a concentration of 100 pM. The mixture was subjected to the reaction at room temperature for 40 minutes. After removal of the assay buffer by aspiration, each well was washed with cooled PBS twice. Then, 200 μl MicroScint 20 (Packerd) was added to each well, and the radioactivity of each well was measured by TopCount (Packard). According to the method above, inhibitory ratios to CCR5 binding of the test compounds were determined.

**Q.** Which inhibition at 1 µM does the source give for `CCCCOCCOc1ccc(-c2ccc3c(c2)C=C(C(=O)Nc2ccc([S+]([O-])Cc4cncn4CCC)cc2)CCCN3c2ccccc2)cc1` (centres unmarked) [Compound 35, 8-[4-(2-butoxyethoxy)phenyl]-1-phenyl-N-[4-[[[1-propylimidazol-5-yl]methyl]sulfinyl]phenyl]-1,2,3,4-tetrahydro-1-benzoazocine-5-carboxamide] here?
**A.** The inhibition at 1 µM was 100%.

**Q.** Which inhibition at 1 µM does the source give for `CCCCOCCOc1ccc(-c2ccc3c(c2)C=C(C(=O)Nc2ccc(SCc4c(C)ncn4CCC)cc2)CCCN3CC(C)C)cc1` [Compound 36, 8-[4-(2-butoxyethoxy)phenyl]-1-isobutyl-N-[4-[[[4-methyl-1-propylimidazol-5-yl]methyl]sulfanyl]phenyl]-1,2,3,4-tetrahydro-1-benzoazocine-5-carboxamide] here?
**A.** Its inhibition at 1 µM is 97%.

**Q.** Which inhibition at 1 µM does the source give for `CCCCOCCOc1ccc(-c2ccc3c(c2)C=C(C(=O)Nc2ccc([S+]([O-])Cc4c(C)ncn4CCC)cc2)CCCN3CC(C)C)cc1` (centres unmarked) [Compound 37, 8-[4-(2-butoxyethoxy)phenyl]-1-isobutyl-N-[4-[[[4-methyl-1-propylimidazol-5-yl]methyl]sulfinyl]phenyl]-1,2,3,4-tetrahydro-1-benzoazocine-5-carboxamide] here?
**A.** The inhibition at 1 µM was 100%.

**Q.** With `CCCCOCCOc1ccc(-c2ccc3c(c2)C=C(C(=O)Nc2ccc(SCc4cncn4CCC)c(C)c2)CCCN3CC(C)C)cc1` [Compound 38, 8-[4-(2-butoxyethoxy)phenyl]-1-isobutyl-N-[3-methyl-4-[[[1-propylimidazol-5-yl]methyl]sulfanyl]phenyl]-1,2,3,4-tetrahydro-1-benzoazocine-5-carboxamide] as the compound, how does the inhibition at 1 µM read?
**A.** Its inhibition at 1 µM is 94%.

**Q.** Which inhibition at 1 µM does the source give for `CCCCOCCOc1ccc(-c2ccc3c(c2)C=C(C(=O)Nc2ccc([S+]([O-])Cc4cncn4CCC)c(C)c2)CCCN3CC(C)C)cc1` (centres unmarked) [Compound 39, 8-[4-(2-butoxyethoxy)phenyl]-1-isobutyl-N-[3-methyl-4-[[[1-propylimidazol-5-yl]methyl]sulfinyl]phenyl]-1,2,3,4-tetrahydro-1-benzoazocine-5-carboxamide] here?
**A.** Its inhibition at 1 µM is 99%.

**Q.** With `CCCCOCCOc1ccc(-c2ccc3c(c2)C=C(C(=O)Nc2ccc(CN(C)C4CCOCC4)cc2)CCCN3CC(C)C)cc1` [Compound 42, 8-(4-(2-butoxyethoxy)phenyl)-1-isobutyl-N-(4-((methyl(tetrahydro-2H-pyran-4-yl)amino)methyl)phenyl)-1,2,3,4-tetrahydro-1-benzoazocine-5-carboxamide] as the compound, how does the inhibition at 1 µM read?
**A.** The inhibition at 1 µM was 90%.

**Q.** For `CCCCOCCOc1ccc(-c2ccc3c(c2)C=C(C(=O)Nc2ccc(SCc4nncn4CCC)cc2)CCCN3CC(C)C)cc1` [Compound 46, 8-[4-(2-butoxyethoxy)phenyl]-1-isobutyl-N-[4-[[(4-propyl-4H-1,2,4-triazol-3-yl)methyl]thio]phenyl]-1,2,3,4-tetrahydro-1-benzazocine-5-carboxamide], which inhibition at 1 µM is on record?
**A.** The inhibition at 1 µM was 99%.

**Q.** For `CCCCOCCOc1ccc(-c2ccc3c(c2)C=C(C(=O)Nc2ccc([S+]([O-])Cc4nncn4CCC)cc2)CCCN3CCC)cc1` (centres unmarked) [Compound 50, 8-[4-(2-butoxyethoxy)phenyl]-1-propyl-N-[4-[[(4-propyl-4H-1,2,4-triazol-3-yl)methyl]sulfinyl]phenyl]-1,2,3,4-tetrahydro-1-benzazocine-5-carboxamide], which inhibition at 1 µM is on record?
**A.** The inhibition at 1 µM was 93%.

Same assay, conditions: test compound 1 μM, 100 pM [125I]-RANTES as ligand, room temperature, 40 minutes

**Q.** Which “Binding Inhibitory Ratio (%)” value does the source give for `CCCOCCOc1ccc(-c2ccc3c(c2)C=C(C(=O)Nc2ccc([S@@+]([O-])Cc4cncn4CCC)cc2)CCCN3CCC)cc1.CS(=O)(=O)O` [Compound 45, (S)-(−)-8-[4-(2-propoxyethoxy)phenyl]-1-propyl-N-[4-[[(1-propyl-1H-imidazol-5-yl)methyl]sulfinyl]phenyl]-1,2,3,4-tetrahydro-1-benzoazocine-5-carboxamide/methanesulfonate] here?
**A.** Its value is 96%.
